From PMC4457528, “Identification of Novel Small Molecule Inhibitors of Oncogenic RET Kinase” (PLoS ONE, 2015)
Where two headings read alike, the source gives them in different places.

What was measured:
Assay in all cases: KinomeScan kinase panel, single concentration 10 µM
Type in all cases: binding
KinomeScan kinase panel [1] = molecular target: T1, KinomeScan kinase panel (Homo sapiens, UniProt P51451); settings: BLK, 10 µM; read-out: score (%)
T1 construct: purchased DiscoveRx (KinomeScan)

KinomeScan kinase panel [2] = molecular target: T2, KinomeScan kinase panel (Homo sapiens, UniProt P50750); settings: CDK9, 10 µM; read-out: score (%)
T2 construct: purchased DiscoveRx (KinomeScan)
T2 sequence (P50750 whole entry): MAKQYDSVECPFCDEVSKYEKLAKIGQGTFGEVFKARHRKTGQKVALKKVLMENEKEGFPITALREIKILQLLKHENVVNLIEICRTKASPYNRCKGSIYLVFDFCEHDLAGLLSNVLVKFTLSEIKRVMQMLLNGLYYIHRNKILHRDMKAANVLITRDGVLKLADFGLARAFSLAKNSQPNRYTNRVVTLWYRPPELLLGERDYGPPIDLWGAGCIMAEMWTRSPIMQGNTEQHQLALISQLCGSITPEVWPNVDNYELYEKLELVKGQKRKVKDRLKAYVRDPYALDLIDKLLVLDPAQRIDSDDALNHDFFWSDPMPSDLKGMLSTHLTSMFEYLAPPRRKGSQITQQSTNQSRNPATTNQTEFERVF

KinomeScan kinase panel [3] = molecular target: T3, KinomeScan kinase panel (Homo sapiens, UniProt Q16539); settings: p38-alpha, 10 µM
T3 construct: purchased DiscoveRx (KinomeScan)
T3 sequence (Q16539 whole entry): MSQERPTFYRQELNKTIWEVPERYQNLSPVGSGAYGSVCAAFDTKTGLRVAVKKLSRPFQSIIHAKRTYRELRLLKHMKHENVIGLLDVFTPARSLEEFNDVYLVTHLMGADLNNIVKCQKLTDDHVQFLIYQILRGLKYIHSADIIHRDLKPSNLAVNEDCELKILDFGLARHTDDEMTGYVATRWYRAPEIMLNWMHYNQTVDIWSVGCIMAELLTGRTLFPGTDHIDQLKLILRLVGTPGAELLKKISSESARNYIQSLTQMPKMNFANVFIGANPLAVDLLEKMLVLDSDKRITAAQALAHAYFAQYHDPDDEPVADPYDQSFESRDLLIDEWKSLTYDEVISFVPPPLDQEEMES

KinomeScan kinase panel [4] = molecular target: T4, KinomeScan kinase panel (Homo sapiens, UniProt P42681); settings: kinase TXK; 10 µM; read-out: score (%)
T4 construct: purchased DiscoveRx (KinomeScan)
T4 sequence (P42681 1-527): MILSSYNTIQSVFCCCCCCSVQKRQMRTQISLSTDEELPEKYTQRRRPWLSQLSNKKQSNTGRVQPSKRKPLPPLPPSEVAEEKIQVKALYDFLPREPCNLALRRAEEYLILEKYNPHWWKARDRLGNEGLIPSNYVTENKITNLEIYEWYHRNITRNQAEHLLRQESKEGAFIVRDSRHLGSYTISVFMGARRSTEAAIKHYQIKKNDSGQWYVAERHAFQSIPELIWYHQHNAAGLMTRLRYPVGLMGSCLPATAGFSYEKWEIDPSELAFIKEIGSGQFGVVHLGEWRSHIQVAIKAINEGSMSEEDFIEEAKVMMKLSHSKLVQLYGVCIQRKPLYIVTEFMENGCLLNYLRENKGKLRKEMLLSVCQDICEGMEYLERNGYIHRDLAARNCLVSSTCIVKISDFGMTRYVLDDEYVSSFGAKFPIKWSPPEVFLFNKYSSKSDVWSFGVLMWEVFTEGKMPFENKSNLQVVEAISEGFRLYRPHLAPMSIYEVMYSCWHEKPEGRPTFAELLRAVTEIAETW

KinomeScan kinase panel [5] = molecular target: T5, KinomeScan kinase panel (Homo sapiens, UniProt Q07912); settings: read-out: score (%)
T5 construct: purchased DiscoveRx (KinomeScan)
T5 sequence (Q07912 whole entry): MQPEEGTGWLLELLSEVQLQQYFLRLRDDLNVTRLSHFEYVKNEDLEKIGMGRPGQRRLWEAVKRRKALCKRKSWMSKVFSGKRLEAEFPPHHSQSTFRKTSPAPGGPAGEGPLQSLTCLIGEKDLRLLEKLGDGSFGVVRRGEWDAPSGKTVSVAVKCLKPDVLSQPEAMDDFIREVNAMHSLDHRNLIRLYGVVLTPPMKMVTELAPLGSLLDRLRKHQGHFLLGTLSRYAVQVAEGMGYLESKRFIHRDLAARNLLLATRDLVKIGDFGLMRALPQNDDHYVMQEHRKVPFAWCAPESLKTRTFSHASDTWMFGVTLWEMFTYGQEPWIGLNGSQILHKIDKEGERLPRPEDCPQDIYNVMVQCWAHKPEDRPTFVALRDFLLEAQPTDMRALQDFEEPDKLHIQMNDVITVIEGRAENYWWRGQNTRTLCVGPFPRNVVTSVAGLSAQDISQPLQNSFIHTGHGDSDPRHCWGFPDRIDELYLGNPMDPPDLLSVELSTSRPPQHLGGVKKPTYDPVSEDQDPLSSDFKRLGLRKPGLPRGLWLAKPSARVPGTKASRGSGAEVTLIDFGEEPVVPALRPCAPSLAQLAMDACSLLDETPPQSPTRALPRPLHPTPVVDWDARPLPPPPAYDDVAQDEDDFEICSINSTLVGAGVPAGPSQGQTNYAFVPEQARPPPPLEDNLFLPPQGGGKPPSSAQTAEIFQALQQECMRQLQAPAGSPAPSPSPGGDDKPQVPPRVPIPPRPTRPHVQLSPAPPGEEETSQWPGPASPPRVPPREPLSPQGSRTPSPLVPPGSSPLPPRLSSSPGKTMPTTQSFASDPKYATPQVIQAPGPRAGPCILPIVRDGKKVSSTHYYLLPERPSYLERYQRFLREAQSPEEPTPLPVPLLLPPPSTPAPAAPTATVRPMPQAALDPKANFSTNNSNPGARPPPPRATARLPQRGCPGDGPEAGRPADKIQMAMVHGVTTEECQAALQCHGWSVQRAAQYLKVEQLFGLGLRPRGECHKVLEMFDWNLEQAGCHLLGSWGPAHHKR

KinomeScan kinase panel [6] = molecular target: T6, KinomeScan kinase panel (Homo sapiens, UniProt Q13164); settings: ERK5, 10 µM; read-out: score (%)
T6 construct: purchased DiscoveRx (KinomeScan)
T6 sequence (Q13164 whole entry): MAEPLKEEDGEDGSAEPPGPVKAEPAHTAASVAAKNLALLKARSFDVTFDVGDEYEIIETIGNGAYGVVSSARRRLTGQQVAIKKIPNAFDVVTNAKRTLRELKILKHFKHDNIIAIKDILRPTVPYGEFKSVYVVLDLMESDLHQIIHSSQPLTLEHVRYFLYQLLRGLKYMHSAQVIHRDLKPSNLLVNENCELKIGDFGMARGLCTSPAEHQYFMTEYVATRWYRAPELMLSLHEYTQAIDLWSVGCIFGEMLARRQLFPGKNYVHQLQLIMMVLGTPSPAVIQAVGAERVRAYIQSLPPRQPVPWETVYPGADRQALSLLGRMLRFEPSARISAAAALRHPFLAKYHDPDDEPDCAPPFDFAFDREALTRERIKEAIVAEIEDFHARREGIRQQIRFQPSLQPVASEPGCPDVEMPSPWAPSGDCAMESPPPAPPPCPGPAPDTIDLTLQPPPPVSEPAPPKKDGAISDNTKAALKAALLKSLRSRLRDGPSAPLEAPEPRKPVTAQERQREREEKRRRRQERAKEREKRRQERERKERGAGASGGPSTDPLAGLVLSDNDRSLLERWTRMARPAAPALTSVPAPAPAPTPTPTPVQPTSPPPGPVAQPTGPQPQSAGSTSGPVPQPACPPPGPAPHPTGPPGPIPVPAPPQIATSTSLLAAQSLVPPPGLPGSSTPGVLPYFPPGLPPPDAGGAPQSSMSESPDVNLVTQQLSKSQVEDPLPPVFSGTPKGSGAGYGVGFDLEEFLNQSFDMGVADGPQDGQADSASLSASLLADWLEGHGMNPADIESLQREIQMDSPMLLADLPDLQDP

KinomeScan kinase panel [7] = molecular target: T7, KinomeScan kinase panel (Homo sapiens, UniProt Q00526); settings: CDK3, 10 µM
T7 construct: purchased DiscoveRx (KinomeScan)
T7 sequence (Q00526 whole entry): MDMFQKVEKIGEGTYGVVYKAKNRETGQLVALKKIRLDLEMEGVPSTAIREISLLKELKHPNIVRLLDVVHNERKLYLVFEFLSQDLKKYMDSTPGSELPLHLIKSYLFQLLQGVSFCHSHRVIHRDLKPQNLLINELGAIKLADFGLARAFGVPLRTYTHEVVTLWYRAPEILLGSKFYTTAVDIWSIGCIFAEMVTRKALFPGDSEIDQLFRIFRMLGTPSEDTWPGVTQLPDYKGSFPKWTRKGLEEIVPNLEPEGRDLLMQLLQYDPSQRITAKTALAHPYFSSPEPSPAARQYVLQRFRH

KinomeScan kinase panel [8] = molecular target: T8, KinomeScan kinase panel (Homo sapiens, UniProt O15264); settings: p38-delta, 10 µM; read-out: score (%)
T8 construct: purchased DiscoveRx (KinomeScan)
T8 sequence (O15264 1-365): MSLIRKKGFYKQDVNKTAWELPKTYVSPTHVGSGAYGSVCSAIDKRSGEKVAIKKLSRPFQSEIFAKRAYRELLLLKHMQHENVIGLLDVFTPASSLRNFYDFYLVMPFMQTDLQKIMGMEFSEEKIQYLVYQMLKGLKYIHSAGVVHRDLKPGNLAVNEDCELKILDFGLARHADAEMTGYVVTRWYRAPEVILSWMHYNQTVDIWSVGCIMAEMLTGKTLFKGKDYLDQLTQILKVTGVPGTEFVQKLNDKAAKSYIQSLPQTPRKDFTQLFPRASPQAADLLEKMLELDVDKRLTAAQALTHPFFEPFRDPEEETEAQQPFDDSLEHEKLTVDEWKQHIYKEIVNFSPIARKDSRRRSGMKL

KinomeScan kinase panel [9] = molecular target: T9, KinomeScan kinase panel (Homo sapiens, UniProt P49840); settings: GSK3A, 10 µM; read-out: score (%)
T9 construct: purchased DiscoveRx (KinomeScan)
T9 sequence (P49840 whole entry): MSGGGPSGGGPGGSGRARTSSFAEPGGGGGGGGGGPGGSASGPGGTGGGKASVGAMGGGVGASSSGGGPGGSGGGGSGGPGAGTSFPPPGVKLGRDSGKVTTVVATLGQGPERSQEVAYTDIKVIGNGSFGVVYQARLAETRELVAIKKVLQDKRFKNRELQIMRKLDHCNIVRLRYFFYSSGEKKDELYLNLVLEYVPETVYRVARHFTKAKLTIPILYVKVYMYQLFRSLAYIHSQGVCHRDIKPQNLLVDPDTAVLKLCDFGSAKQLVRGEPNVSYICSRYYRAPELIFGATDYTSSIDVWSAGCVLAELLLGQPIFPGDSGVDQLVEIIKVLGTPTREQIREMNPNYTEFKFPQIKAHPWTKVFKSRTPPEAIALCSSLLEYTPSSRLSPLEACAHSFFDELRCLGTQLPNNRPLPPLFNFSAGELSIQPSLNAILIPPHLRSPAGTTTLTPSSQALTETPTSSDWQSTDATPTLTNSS

KinomeScan kinase panel [10] = molecular target: T10, KinomeScan kinase panel (Homo sapiens, UniProt Q14680); settings: MELK, 10 µM; read-out: score (%)
T10 construct: purchased DiscoveRx (KinomeScan)
T10 sequence (Q14680 whole entry): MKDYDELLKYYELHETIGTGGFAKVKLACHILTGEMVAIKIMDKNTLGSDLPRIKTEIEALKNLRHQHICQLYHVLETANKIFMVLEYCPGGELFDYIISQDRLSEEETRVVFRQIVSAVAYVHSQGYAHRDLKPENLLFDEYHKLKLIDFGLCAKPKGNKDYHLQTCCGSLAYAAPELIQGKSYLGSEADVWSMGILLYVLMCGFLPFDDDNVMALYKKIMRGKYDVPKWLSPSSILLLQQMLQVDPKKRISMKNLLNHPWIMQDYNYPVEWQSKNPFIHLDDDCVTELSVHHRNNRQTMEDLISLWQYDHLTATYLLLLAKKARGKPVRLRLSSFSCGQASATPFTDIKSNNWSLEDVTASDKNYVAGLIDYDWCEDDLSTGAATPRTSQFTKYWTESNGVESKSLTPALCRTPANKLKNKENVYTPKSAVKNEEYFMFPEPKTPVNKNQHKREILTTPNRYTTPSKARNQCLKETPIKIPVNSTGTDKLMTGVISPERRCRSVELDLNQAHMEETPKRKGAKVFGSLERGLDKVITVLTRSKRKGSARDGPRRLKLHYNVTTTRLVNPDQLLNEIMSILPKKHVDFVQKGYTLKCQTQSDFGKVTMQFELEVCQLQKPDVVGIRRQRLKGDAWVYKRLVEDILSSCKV

KinomeScan kinase panel [11] = molecular target: T11, KinomeScan kinase panel (Homo sapiens, UniProt P00519, H396P); settings: 10 µM, read-out: score (%)
T11 construct: purchased DiscoveRx (KinomeScan)

KinomeScan kinase panel [12] = molecular target: T12, KinomeScan kinase panel (Homo sapiens, UniProt Q8IVH8); settings: MAP4K3, 10 µM
T12 construct: purchased DiscoveRx (KinomeScan)
T12 sequence (Q8IVH8 1-894): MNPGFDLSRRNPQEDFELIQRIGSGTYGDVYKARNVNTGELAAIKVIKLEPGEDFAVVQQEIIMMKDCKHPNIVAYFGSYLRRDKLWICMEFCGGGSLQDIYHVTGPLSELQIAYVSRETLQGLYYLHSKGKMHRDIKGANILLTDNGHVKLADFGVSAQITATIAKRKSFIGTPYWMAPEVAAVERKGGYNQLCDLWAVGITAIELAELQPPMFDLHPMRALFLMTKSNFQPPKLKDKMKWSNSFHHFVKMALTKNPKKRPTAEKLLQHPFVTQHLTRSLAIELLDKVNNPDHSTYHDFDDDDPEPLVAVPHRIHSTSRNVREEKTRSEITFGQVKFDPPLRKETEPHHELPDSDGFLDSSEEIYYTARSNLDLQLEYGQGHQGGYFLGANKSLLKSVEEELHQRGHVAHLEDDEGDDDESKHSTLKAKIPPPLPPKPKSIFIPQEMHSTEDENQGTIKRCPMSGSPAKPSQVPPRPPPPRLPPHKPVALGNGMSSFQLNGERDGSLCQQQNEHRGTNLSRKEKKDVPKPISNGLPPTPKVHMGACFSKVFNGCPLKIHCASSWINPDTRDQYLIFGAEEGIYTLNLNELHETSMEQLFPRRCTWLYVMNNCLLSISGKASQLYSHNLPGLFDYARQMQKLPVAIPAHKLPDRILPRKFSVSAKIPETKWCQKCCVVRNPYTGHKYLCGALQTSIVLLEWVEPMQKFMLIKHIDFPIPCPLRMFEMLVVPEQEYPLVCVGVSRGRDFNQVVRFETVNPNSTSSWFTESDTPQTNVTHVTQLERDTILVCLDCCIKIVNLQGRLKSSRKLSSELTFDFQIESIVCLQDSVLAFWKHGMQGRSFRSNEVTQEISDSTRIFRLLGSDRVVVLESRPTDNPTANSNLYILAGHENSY

T1 sequence (P51451 whole entry): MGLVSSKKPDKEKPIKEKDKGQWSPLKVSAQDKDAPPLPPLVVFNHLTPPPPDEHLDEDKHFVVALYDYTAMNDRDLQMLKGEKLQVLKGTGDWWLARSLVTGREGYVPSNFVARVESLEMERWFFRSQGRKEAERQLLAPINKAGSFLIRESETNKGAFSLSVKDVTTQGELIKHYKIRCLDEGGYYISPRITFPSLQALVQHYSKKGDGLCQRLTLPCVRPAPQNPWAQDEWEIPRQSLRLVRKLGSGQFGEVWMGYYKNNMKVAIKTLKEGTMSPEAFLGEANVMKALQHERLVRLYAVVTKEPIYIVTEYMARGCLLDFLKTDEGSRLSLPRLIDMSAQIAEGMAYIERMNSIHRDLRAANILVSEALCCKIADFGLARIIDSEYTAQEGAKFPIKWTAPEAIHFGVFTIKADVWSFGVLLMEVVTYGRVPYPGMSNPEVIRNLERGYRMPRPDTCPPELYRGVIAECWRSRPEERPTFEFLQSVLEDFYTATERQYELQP

remaining binding at 10 µM (KinomeScan kinase panel [5]; TNK2, 10 µM)	SMILES	remaining binding at 10 µM (KinomeScan kinase panel [1])	remaining binding at 10 µM (KinomeScan kinase panel [2])	score (%) (KinomeScan kinase panel [3])	remaining binding at 10 µM (KinomeScan kinase panel [4])	remaining binding at 10 µM (KinomeScan kinase panel [5]; kinase TNK2, 10 µM)	remaining binding at 10 µM (KinomeScan kinase panel [6])	score (%) (KinomeScan kinase panel [7])	remaining binding at 10 µM (KinomeScan kinase panel [8])	remaining binding at 10 µM (KinomeScan kinase panel [9])	remaining binding at 10 µM (KinomeScan kinase panel [10])	remaining binding at 10 µM (KinomeScan kinase panel [11]; ABL1(H396P))	score (%) (KinomeScan kinase panel [12])	remaining binding at 10 µM (KinomeScan kinase panel [11]; ABL1(H396P)-nonphosphorylated)	remaining binding at 10 µM (KinomeScan kinase panel [11]; ABL1(H396P)-phosphorylated)
–	CCN1CCN(Cc2ccc(NC(=O)c3ccc(C)c(NC(=O)c4cncc(-c5cccs5)c4)c3)cc2C(F)(F)F)CC1 [ALW-II-41-27]	0.1%	> 30%	0%	1.8%	2.1%	> 30%	nb (Hits values higher than 30% were considered negative (no binding: nb))	29%	> 30%	> 30%	0.5%	20%	–	–
0.5%	CCN1CCN(Cc2ccc(NC(=O)c3ccc(C)c(/C=C/c4cnc5[nH]ccc5c4Cl)c3)cc2C(F)(F)F)CC1 [HG-6-63-01, (E)-3-(2-(4-chloro-1H-pyrrolo[2,3-b]pyridin-5-yl)vinyl)-N-(4-((4-ethylpiperazin-1-yl)methyl)-3-(trifluoromethyl)phenyl)-4-methylbenzamide]	0.2%	> 30%	0.15%	0.9%	–	> 30%	nb (Hits values higher than 30% were considered negative (no binding: nb))	> 30%	> 30%	22%	0.2%	4.2%	–	–
–	CCN1CCN(Cc2ccc(NC(=O)c3ccc(C)c(C#Cc4cccnc4)c3)cc2C(F)(F)F)CC1 [XMD15-44]	0%	> 30%	0%	0.3%	11%	> 30%	24%	2.5%	> 30%	8.1%	–	2.6%	0%	0%
